Results on seven compounds are retold here after ChEMBL document CHEMBL1201862, “PubChem BioAssay data set” (2004).

Calls of active or inactive are those of the source. A value given as a limit tells only on which side of the number the result lay.

The target in test [1] is Polyadenylate-binding protein 1 (Homo sapiens, UniProt P11940). Briefly: PABP poly(A) RNA binding inhibitors, primary screen, biochemical, fluorescence polarization, uHTS (AID 2014).
The target in test [2] is DNA dC->dU-editing enzyme APOBEC-3G (Homo sapiens, UniProt Q9HC16). The format is functional.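 Note: Dose-response counterscreen measuring inhibition of APOBEC3G DNA deaminase activity, run while confirming APOBEC3A inhibitors.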
In test [3] the target is DNA dC->dU-editing enzyme APOBEC-3A (Homo sapiens, UniProt P31941). Briefly: Dose Response confirmation of small molecule APOBEC3A DNA Deaminase Inhibitors via a fluorescence-based single-stranded DNA deaminase assay. [Related pubchem assays (depositor defined):AID493011, AID493024]. The test is classed as functional.
Test [4] addresses Eukaryotic translation initiation factor 4H (Homo sapiens, UniProt Q15056). In words: human eIF4H binding inhibitors, primary screen, translation initiation inhibitor project, biochemical, uHTS, fluorescence polarization (AID 2012).
For a further test, the target named is Coagulation factor XII (Homo sapiens, UniProt P00748). The format is functional.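 Note: activated factor XIIa alpha cleaving a fluorogenic AMC peptide substrate; inhibitor potency from loss of enzyme activity.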
The target of test [5] is Glyceraldehyde-3-phosphate dehydrogenase (Homo sapiens, UniProt P04406).
The target in test [6] is Alkaline phosphatase, placental type (Homo sapiens, UniProt P05187). Briefly: PLAP enzyme inhibitors, confirmation, biochemical, luminescence (AID 1512). The test is classed as functional.
Test [7] has as its target T1, Alkaline phosphatase, tissue-nonspecific isozyme (Homo sapiens, UniProt P05186).
T1 sequence (P05186 whole entry): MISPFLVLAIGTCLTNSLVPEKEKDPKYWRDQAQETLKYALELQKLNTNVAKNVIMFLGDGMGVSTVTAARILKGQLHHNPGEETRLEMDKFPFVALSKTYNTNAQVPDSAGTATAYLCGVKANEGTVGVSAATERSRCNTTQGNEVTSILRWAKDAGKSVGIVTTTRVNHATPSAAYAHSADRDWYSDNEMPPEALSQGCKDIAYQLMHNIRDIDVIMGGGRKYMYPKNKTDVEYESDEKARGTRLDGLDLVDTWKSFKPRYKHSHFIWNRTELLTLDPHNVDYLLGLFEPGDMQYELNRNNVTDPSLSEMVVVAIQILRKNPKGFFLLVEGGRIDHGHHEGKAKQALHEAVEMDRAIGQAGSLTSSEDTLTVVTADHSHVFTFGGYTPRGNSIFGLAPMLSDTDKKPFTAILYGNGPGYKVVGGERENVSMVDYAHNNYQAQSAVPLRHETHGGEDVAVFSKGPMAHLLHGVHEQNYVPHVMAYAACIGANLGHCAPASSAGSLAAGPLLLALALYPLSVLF
In words: human TNAP enzyme inhibitors, SAR follow-up, biochemical, luminescent, dose response (AID 1056).

For a further test, the target named is T2, Streptokinase A (Streptococcus pyogenes serotype M1, UniProt P10520).
T2 sequence (P10520 whole entry): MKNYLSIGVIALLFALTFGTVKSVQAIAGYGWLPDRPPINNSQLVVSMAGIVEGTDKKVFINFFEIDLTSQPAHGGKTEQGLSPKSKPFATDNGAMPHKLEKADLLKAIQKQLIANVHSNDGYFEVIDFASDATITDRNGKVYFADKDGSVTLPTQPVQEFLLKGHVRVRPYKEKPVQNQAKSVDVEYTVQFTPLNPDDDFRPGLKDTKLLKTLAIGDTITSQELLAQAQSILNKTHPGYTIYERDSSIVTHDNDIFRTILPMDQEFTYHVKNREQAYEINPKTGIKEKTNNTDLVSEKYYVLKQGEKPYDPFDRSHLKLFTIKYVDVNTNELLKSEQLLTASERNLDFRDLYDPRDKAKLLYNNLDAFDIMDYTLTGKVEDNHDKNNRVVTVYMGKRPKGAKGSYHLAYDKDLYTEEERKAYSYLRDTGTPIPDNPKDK
In words: S. pyogenes streptokinase expression inhibitors, potency, dose response, plasminogen activation absorbance, OD405 (AID 1914).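 Note: secreted streptokinase activity via plasminogen activation per viability signal from cell pellet.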 The test is classed as functional, Streptococcus pyogenes M1 GAS.

In a further test the test system is Streptococcus. Briefly: Group A Streptococcus viability loss, dose response, counter-screen for streptokinase expression inhibitor project, luminescence, BacTiterGlo (AID 1915).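 Note: potency for reduction of bacterial viability or growth.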 The format is functional, organism-based.
For test [8], the system named is Streptococcus sp. 'group A'. In words: growth inhibition of control SK(-) GAS strain, dose response, counter-screen for streptokinase expression inhibitor project, luminescence, kanamycin, BacTiterGlo, confirmation (AID 1900). The format is functional, organism-based.
The target in a further test is T3, Phosphomannomutase 2 (Homo sapiens, UniProt O15305).
T3 sequence (O15305 whole entry): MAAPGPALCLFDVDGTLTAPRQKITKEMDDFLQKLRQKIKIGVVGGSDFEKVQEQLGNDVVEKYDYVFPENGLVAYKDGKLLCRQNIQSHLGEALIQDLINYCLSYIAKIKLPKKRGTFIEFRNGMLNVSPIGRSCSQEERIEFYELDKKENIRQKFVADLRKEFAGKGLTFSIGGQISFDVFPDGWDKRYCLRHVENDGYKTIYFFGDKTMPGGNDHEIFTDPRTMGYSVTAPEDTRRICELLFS
Briefly: Counter screen SAR assay for PMM2 inhibitors via a fluorescence intensity assay. [Related pubchem assays (depositor defined):AID1545, AID1574].

The target in test [9] is Glucose-6-phosphate 1-dehydrogenase (Homo sapiens, UniProt P11413). Briefly: human G6PD enzyme inhibitors, dose response, selectivity assay for P. falciparum G6PD inhibitor project, biochemical, fluorescence (AID 504792). The test is classed as functional.
The nature of test [10]: HeLa cell cytotoxicity, dose response, cytotoxicity control for MgcRacGAP inhibitor project (AID 624300). The format is functional.
The target in test [11] is T4, Rac GTPase-activating protein 1 (Homo sapiens, UniProt Q9H0H5).
T4 sequence (Q9H0H5 whole entry): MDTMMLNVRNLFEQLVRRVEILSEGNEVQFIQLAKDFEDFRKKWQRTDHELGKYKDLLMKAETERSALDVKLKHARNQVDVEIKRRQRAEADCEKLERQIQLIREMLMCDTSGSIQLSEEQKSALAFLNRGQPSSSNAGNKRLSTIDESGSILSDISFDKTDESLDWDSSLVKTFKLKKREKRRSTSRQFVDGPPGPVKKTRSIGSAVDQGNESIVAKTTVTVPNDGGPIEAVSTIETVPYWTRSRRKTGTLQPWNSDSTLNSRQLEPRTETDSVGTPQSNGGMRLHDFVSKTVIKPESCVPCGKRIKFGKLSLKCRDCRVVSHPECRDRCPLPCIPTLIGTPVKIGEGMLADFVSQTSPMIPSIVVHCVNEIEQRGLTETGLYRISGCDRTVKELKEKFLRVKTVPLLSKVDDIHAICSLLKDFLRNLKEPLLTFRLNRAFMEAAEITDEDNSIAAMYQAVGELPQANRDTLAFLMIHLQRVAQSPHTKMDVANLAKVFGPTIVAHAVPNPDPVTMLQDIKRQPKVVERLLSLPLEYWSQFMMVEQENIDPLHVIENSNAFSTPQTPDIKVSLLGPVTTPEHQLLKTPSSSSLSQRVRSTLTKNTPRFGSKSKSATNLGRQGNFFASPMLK
Briefly: MgcRacGAP GTPase-activating activity inhibitors, confirmation, biochemical, ADP Hunter fluorescence, primary and confirmatory (AID 624330). The format is functional.

Another test has as its target Hexokinase (Trypanosoma brucei, UniProt Q38C41). In words: Confirmation assay for inhibitors of Trypanosoma brucei hexokinase 1-Analogue-first series. [Related pubchem assays (depositor defined):AID1430, AID1632, AID2516, AID2560, AID2579, AID2600, AID449725, AID492951]. The test is classed as functional.
The target in a further test is T5, Bcl-2-like protein 10 (Homo sapiens, UniProt Q9HD36).
T5 sequence (Q9HD36 whole entry): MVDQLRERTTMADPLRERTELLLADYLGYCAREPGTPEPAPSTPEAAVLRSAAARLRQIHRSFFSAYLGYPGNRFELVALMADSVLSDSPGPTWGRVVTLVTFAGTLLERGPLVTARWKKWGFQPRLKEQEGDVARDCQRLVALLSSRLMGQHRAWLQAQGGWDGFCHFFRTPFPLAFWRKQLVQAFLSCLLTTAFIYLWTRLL
Briefly: displacers of TR3 peptide from Bcl-B, primary screen, selectivity assay for Bfl-1 inhibitor project, biochemical, fluorescence polarization, FITC-TR3 peptide (AID 748).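 Note: fluorescence polarization from a fluorescein-labelled TR3 peptide binding purified Bcl-B.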

The nature of test [12]: cytotoxicity in KRAS-transformed pancreatic duct cells, primary screen, cell-based, fluorescence, HTS (AID 431). The note with it: Homo sapiens. The format is functional.
For another test, the target named is T6, Estrogen receptor (Homo sapiens, UniProt P03372).
T6 sequence (P03372 whole entry): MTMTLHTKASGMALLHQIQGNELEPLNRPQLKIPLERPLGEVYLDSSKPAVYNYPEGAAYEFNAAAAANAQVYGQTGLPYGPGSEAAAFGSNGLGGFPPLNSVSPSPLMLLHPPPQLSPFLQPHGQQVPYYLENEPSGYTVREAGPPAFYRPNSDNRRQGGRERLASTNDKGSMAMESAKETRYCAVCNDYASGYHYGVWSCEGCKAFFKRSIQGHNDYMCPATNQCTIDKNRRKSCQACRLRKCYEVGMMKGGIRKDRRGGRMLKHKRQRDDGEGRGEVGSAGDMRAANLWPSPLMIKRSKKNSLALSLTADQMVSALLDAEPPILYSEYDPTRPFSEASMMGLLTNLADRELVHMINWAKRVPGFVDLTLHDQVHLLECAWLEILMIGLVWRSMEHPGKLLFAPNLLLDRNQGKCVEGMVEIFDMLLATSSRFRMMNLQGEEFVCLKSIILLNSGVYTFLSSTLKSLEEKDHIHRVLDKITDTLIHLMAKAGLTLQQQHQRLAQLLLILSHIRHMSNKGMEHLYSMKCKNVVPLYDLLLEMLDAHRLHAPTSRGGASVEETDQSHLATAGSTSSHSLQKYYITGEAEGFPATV

Test [13] has as its target T7, Estrogen receptor beta (Homo sapiens, UniProt Q92731). In words: ERβ–SRC-3 coactivator interaction inhibitors, confirmation, orthogonal assay, biochemical, ELISA, streptavidin-HRP readout (AID 1060).
The target in a further test is T8, Protein Tat (Human immunodeficiency virus type 1 group M subtype B (isolate HXB2)(HIV-1), UniProt P04608).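 Note: tat binding to TAR RNA read out by fluorescence polarization.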
T8 sequence (P04608 whole entry): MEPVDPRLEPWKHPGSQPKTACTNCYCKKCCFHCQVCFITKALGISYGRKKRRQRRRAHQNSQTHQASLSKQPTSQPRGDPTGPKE
The test is classed as functional.

The target of test [14] is T7, Estrogen receptor beta.
Test [15] in a line: cytotoxicity in HPDE-C7 cells, cell-based, fluorescence, HTS (AID 430). The note with it: Homo sapiens. The format is functional.

DNA dC->dU-editing enzyme APOBEC-3G, sequence (Q9HC16 whole entry): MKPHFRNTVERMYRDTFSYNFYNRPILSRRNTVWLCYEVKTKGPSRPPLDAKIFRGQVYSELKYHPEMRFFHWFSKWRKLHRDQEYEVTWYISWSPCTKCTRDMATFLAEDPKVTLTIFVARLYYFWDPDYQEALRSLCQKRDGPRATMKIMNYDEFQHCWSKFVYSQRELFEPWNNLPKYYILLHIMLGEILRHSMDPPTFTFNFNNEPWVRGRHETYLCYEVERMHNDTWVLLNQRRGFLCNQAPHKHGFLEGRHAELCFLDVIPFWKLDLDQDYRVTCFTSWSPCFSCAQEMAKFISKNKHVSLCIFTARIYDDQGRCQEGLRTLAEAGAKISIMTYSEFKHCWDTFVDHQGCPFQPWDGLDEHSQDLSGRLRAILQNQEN
Alkaline phosphatase, placental type, sequence (P05187 whole entry): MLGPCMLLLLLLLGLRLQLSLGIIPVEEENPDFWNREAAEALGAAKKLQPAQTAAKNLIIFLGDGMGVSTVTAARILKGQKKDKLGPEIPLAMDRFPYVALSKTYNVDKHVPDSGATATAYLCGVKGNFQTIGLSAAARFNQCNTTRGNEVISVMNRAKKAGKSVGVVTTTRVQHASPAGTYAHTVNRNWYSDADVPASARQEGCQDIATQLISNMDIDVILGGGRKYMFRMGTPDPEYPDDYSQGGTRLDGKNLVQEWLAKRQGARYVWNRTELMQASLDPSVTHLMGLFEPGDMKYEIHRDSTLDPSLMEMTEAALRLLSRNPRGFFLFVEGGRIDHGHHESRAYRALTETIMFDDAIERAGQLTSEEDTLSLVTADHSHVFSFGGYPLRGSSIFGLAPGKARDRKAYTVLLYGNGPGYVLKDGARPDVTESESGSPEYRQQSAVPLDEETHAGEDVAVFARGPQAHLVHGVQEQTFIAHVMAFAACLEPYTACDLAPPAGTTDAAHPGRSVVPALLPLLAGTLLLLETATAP
T7 sequence (Q92731 whole entry): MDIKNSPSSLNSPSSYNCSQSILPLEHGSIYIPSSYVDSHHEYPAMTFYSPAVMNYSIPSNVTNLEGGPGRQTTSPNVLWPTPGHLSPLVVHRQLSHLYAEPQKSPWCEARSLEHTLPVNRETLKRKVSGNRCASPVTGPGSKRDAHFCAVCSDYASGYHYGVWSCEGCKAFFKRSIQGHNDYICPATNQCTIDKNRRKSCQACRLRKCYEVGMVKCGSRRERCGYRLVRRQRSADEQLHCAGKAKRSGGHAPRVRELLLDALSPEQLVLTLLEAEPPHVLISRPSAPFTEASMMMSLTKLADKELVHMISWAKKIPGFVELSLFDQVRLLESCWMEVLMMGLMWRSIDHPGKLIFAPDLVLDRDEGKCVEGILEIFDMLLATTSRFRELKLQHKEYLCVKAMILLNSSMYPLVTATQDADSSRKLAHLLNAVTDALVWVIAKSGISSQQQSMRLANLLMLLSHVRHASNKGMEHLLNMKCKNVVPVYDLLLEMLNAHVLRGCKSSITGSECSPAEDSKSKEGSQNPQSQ
Coagulation factor XII, sequence (P00748 20-372 limits assumed): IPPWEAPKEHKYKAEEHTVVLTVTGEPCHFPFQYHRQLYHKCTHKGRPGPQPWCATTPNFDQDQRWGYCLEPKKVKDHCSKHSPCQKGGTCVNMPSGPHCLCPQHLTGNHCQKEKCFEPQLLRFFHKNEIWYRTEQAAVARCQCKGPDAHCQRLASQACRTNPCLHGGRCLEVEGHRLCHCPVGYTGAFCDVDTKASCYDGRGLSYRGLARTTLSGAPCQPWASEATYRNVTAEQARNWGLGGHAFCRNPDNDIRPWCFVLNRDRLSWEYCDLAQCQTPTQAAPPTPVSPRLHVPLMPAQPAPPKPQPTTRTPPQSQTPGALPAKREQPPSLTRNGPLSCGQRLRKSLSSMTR
Coagulation factor XII, sequence (P00748 373-615 limits assumed): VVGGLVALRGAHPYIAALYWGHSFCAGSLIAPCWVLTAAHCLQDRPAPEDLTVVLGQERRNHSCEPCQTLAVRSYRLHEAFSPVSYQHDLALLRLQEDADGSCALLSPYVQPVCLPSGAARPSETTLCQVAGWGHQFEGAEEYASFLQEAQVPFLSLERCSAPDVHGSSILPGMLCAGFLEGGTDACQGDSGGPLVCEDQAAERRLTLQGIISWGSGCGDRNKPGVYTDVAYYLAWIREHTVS
DNA dC->dU-editing enzyme APOBEC-3A, sequence (P31941 whole entry): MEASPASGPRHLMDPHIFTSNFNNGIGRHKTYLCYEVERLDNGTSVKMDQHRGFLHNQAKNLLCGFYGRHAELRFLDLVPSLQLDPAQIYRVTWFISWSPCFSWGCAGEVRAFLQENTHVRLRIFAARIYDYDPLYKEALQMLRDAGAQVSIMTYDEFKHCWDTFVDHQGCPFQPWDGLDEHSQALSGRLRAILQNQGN
Glyceraldehyde-3-phosphate dehydrogenase, sequence (P04406 whole entry): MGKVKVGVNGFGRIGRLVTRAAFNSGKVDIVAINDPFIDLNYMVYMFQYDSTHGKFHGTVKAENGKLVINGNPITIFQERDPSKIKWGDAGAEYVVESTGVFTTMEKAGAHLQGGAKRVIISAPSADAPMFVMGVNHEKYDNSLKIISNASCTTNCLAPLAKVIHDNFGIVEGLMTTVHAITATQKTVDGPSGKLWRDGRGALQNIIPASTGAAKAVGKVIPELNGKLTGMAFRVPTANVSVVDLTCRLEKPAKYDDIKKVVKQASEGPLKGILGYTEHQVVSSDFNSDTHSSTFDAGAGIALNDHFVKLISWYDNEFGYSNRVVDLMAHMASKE
Polyadenylate-binding protein 1, sequence (P11940 whole entry): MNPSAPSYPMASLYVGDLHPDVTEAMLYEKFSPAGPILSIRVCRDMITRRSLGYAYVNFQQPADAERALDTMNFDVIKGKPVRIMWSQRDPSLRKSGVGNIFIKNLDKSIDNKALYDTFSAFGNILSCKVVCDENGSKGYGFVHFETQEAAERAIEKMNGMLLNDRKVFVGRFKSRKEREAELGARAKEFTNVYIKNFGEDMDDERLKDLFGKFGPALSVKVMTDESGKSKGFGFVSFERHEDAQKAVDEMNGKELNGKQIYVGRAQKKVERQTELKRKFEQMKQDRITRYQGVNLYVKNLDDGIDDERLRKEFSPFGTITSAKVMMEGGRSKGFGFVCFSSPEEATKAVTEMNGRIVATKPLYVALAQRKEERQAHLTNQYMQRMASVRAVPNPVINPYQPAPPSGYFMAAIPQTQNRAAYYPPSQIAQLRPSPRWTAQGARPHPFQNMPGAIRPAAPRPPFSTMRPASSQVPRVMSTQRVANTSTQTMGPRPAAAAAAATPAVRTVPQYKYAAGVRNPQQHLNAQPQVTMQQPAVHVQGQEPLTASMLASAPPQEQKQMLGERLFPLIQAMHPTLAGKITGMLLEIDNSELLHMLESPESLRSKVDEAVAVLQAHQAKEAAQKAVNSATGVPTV
Glucose-6-phosphate 1-dehydrogenase, sequence (P11413 whole entry): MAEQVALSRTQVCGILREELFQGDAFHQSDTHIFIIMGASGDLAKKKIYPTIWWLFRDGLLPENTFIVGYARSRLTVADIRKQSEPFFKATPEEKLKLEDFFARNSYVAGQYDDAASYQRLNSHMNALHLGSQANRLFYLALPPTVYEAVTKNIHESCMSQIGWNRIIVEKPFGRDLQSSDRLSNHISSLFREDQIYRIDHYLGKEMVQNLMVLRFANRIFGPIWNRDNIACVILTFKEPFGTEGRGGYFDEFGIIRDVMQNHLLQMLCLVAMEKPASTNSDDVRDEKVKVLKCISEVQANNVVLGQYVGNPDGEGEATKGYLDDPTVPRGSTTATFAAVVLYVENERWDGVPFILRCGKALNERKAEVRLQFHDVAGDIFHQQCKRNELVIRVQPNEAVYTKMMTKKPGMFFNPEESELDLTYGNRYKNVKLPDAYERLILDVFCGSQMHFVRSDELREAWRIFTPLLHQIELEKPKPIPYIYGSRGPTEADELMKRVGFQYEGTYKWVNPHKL
Hexokinase, sequence (Q38C41 whole entry): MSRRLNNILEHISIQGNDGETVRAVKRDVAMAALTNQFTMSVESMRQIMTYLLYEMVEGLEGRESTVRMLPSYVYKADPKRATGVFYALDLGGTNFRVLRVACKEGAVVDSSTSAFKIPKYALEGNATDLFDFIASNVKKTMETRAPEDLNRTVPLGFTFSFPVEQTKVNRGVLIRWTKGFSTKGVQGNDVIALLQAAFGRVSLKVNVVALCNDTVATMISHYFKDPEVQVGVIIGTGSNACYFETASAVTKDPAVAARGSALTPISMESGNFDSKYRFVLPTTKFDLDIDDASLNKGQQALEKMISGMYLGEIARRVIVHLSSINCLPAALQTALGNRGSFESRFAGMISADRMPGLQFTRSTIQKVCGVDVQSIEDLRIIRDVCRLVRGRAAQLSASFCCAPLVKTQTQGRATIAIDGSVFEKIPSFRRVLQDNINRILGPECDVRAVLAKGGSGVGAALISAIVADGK

As for `CCCn1c2c(c(=N)c3c1CCC3)CCC2`, the half-inhibitory concentration (IC50) in test [1] is 4.08 µM (active); in test [2], 2.66 µM (active); in test [3], 2.76 µM (active); in test [4] it was > 100 µM (inactive).

Consider `COc1cccc(NC(C(=O)Nc2cccc(C(C)=O)c2)c2ccccc2)c1` (stereo not drawn), for which the IC50 at Coagulation factor XII is > 50 µM (inactive).

For the compound `Cc1n[nH]c2c1C(=O)CC(c1ccc(F)cc1)C2` (stereo not drawn), the results for the IC50 in [5], in test [6] and in [7] were > 100 µM (not active), > 100 µM (inactive) and 14.4 µM (active), respectively.

As to `O=C(Nc1ncc(Cc2ccccc2)s1)c1cccs1`, on Coagulation factor XII, the IC50 was > 50 µM (inactive). The half-maximal effective concentration (EC50) is > 150 µM (not active) at Streptokinase A, > 150 µM (not active) in the test with Streptococcus and 15.6 µM (active) in test [8].

With `O=c1c2ccccc2sn1-c1ccc(Cl)cc1`, the IC50 at Phosphomannomutase 2 was 35.6 µM (active); in [9] it was 10.5 µM (active); in test [11], 34.7 µM (active); at Hexokinase, 1.1 µM (active). Further, the 50% cytotoxic concentration (CC50) in test [10] was 100 µM (active).

With `COc1ccc2c(c1)c(=O)oc1cc(OCC(=O)N3CCC(C)CC3)ccc12`, the IC50 in [2] is > 100 µM (inactive); on Bcl-2-like protein 10, 31.8 µM (active); in test [3] it was 21.6 µM (active); on Estrogen receptor, 11.7 µM (active); against Estrogen receptor beta [13] it was 14.3 µM (not active); on Protein Tat it was > 100 µM (active). In addition, the IC50 at Estrogen receptor beta [14] was 5.31 µM (active). Further, the EC50 in [12] and in [15] was > 20 µM (not active) each time.

With `Oc1ccc(C2=Nn3c(nnc3-c3ccccc3Cl)SC2)cc1O`, the half-inhibitory concentration (IC50) is 15 µM (active) in [6] and 4.02 µM (active) in test [7].
